Columns and labels:
[1] = test system: gel-filtered human platelets; assay: Inhibition of ADP-stimulated platelet aggregation (IC50 Plaggin); type: cell-based; conditions: ADP-initiated (10 mM ADP) aggregation of gel-filtered human platelets, fibrinogen 100 ug/ml, Ca2+ 1 mM, 37° C.
Experimental: Platelet aggregation is measured at 37° C. in a Chronolog aggregometer. The reaction mixture contains gel-filtered human platelets (2×10^8 per ml), fibrinogen (100 micrograms per ml (ug/ml)), Ca^2 +(1 mM), and the compound to be tested. The aggregation is initiated by adding […] ADP 1 minute after the other components are added. The reaction is then allowed to proceed for at least 2 minutes. The extent of inhibition of aggregation is expressed as the percentage of the rate of aggregation observed in the absence of inhibitor. The IC50 is the dose of a particular compound inhibiting aggregation by 50% relative to a control lacking the compound.
In addition to the following preparative procedures, several examples of in vitro bioactivity of compounds within the scope of the present invention are indicated. To illustrate, one test which is used to evaluate fibrinogen receptor antagonist activity is based on evaluation of inhibition of ADP-stimulated platelets. Aggregation requires that fibrinogen bind to and occupy the platelet fibrinogen receptor site. Inhibitors of fibrinogen binding inhibit aggregation. In the ADP-stimulated platelet aggregation assay used to determine inhibition associated with the compounds claimed in the instant invention, human platelets are isolated from fresh blood, collected into acid citrate/dextrose o by differential centrifugation followed by gel filtration on Sepharose 2B in divalent ion-free Tyrode's buffer (pH 7.4) containing 2% bovine serum albumin.

gp IIb/IIIa complex = conditions: cited from earlier work

| Compound | IC50 [1] | affinity for the gp IIb/IIIa complex (gp IIb/IIIa complex) |
| --- | --- | --- |
| C[C@H](CC(=O)O)NC(=O)[C@@H]1C[C@H]1C(=O)NCCC1CCNCC1 | 17000 nM | – |
| Echistatin | – | high affinity |
| CCCCS(=O)(=O)N[C@@H](CNC(=O)[C@@H]1C[C@H]1C(=O)NCCC1CCNCC1)C(=O)O | 77 nM | – |
| CCCCS(=O)(=O)N[C@@H](CNC(=O)[C@H]1C[C@@H]1C(=O)NCCC1CCNCC1)C(=O)O | 580 nM | – |
| CCCCS(=O)(=O)N[C@@H](CNC(=O)C1CC1CC(=O)NCCC1CCNCC1)C(=O)O (some centres unmarked) | 140 nM | – |
| CCCCS(=O)(=O)N[C@@H](CCNC(=O)[C@@H]1C[C@H]1C(=O)NCCC1CCNCC1)C(=O)O | 3500 nM | – |
| CCCCS(=O)(=O)N[C@@H](CNC(=O)C1CC1C(=O)NCCC1CCNCC1)C(=O)O (some centres unmarked) | 210 nM | – |
| CCCCS(=O)(=O)N[C@@H](CCNC(=O)[C@H]1C[C@@H]1C(=O)NCCC1CCNCC1)C(=O)O | 17000 nM | – |
